# From article PMC6576746, “Rational discovery of dual-indication multi-target PDE/Kinase inhibitor for precision anti-cancer therapy using structural systems pharmacology” (PLoS Computational Biology, 2019)
# Key:
# Test in all cases: cells
# Set-up in all cases: species or system panel of human cancer cell lines; Eurofins OncoPanel proliferation; nuclei count by high-content fluorescence imaging, 10-point dose response
# [1] = test system: CAL-62; settings: Homo sapiens, CAL-62, 72 h, cell count, 3 days
# In short: (§1)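 Ten half-log concentrations from 100 μM (0.1% DMSO max) applied one day post-seeding, 3-day exposure at 37°C; untreated time-zero plate for GI50. Readout is nuclear cell count by automated fluorescence imaging, giving EC50, IC50, GI50 and 0–10 activity area.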
# [2] = test system: CaOV3; settings: Homo sapiens, Caov-3, 72 h, cell count, 3 days
# In short: as §1
# [3] = test system: SW1353; settings: Homo sapiens, SW1353, 72 h, cell count, 3 days
# In short: as §1
# [4] = test system: NCI-H295R; settings: Homo sapiens, NCI-H295R, 72 h, cell count, 3 days
# In short: as §1
# [5] = test system: ChaGoK1; settings: Homo sapiens, ChaGo-K-1, 72 h, cell count, 3 days
# In short: as §1
# [6] = test system: MG-63; settings: Homo sapiens, MG-63, 72 h, cell count, 3 days
# In short: as §1
# [7] = test system: CCRFCEM; settings: Homo sapiens, CCRF-CEM, 72 h, cell count, 3 days
# In short: as §1
# [8] = test system: KU812; settings: Homo sapiens, KU812, 72 h, cell count, 3 days
# In short: as §1
# [9] = test system: HCT-8; settings: Homo sapiens, HCT-8, 72 h, cell count, 3 days
# In short: as §1
# [10] = test system: BT-549; settings: Homo sapiens, BT-549, 72 h, cell count, 3 days
# In short: as §1
# [11] = test system: MOLT-3; settings: Homo sapiens, MOLT-3, 72 h, cell count, 3 days
# In short: as §1
# [12] = test system: BT20; settings: Homo sapiens, BT-20, 72 h, cell count, 3 days
# In short: as §1
# [13] = test system: MHH-PREB-1; settings: Homo sapiens, MHH-PREB-1, 72 h, cell count, 3 days
# In short: as §1
# [14] = test system: A431; settings: Homo sapiens, A-431, 72 h, cell count, 3 days
# In short: as §1
# [15] = 50% of maximum possible response
smiles,measurement,setting,value
C[C@@H]1CC(=O)NN=C1c1ccc(NN=C(C#N)C#N)cc1 [levosimendan],IC50,[1]; [15],12.3 µM
same,GI50,[1]; corrected for time zero,11.4 µM
same,EC50,[1]; curve inflection point,12.1 µM
same,IC50,[2]; [15],37.4 µM
same,GI50,[2]; corrected for time zero,21.4 µM
same,EC50,[2]; curve inflection point,37.4 µM
same,IC50,[3]; [15],72.8 µM
same,GI50,[3]; corrected for time zero,60.9 µM
same,EC50,[3]; curve inflection point,72.8 µM
same,IC50,[4]; [15],91.6 µM
same,GI50,[4]; corrected for time zero,57.1 µM
same,EC50,[4]; curve inflection point,91.6 µM
same,IC50,[5]; [15],84.9 µM
same,GI50,[5]; corrected for time zero,57.2 µM
same,EC50,[5]; curve inflection point,84.9 µM
same,IC50,[6]; [15],19.5 µM
same,GI50,[6]; corrected for time zero,14.2 µM
same,EC50,[6]; curve inflection point,16.9 µM
same,IC50,[7]; [15],35.5 µM
same,GI50,[7]; corrected for time zero,28.5 µM
same,EC50,[7]; curve inflection point,35.5 µM
same,IC50,[8]; [15],70.3 µM
same,GI50,[8]; corrected for time zero,48.8 µM
same,EC50,[8]; curve inflection point,70.3 µM
same,IC50,[9]; [15],23.9 µM
same,GI50,[9]; corrected for time zero,23.3 µM
same,EC50,[9]; curve inflection point,23.2 µM
same,IC50,[10]; [15],15.4 µM
same,GI50,[10]; corrected for time zero,11.3 µM
same,EC50,[10]; curve inflection point,12.7 µM
same,IC50,[11]; [15],32.4 µM
same,GI50,[11]; corrected for time zero,19.9 µM
same,EC50,[11]; curve inflection point,30.5 µM
same,IC50,[12]; [15],> 100 µM
same,GI50,[12]; corrected for time zero,64.2 µM
same,EC50,[12]; curve inflection point,> 100 µM
same,IC50,[13]; [15],7.64 µM
same,GI50,[13]; corrected for time zero,7.08 µM
same,EC50,[13]; curve inflection point,7.4 µM
same,IC50,[14]; [15],44.9 µM
same,GI50,[14]; corrected for time zero,42.8 µM
same,EC50,[14]; curve inflection point,44.9 µM
